Experimental data published in publication PMC11009956, “Initial Primer Synthesis of a DNA Primase Monitored by Real-Time NMR Spectroscopy” (Journal of the American Chemical Society, 2024).
Substitutions are numbered along the chain they refer to.

Columns and labels:
functional pRN1 primase [1] = biological target: T1, functional pRN1 primase (Saccharolobus islandicus, UniProt Q54324); experiment: […] CP-MAS solid-state NMR; 1H-detected hNH NMR; type: biochemical; conditions: formed in situ from ATP^N and dGTP^C on primase-DNA complex; triphosphate remains bound to HBD
T1 construct: primase part (catalytic domain plus HBD), residues 40-370, monomeric, expressed in E. coli BL21(DE3) Codon+, Ni2+ IMAC purified (tag not described)

[2] = biological target: T2, helix-bundle domain (HBD) of pRN1 primase (Saccharolobus islandicus, UniProt Q54324); experiment: 1H-15N HSQC NMR titration; type: binding; conditions: 10 mM MgCl2, pH 7.0, 298 K
T2 construct: helix-bundle domain, residues 256-370, expressed in E. coli BL21(DE3) Codon+, Ni2+ IMAC purified (tag not described)

functional pRN1 primase [3] = biological target: T1, functional pRN1 primase; experiment: time-resolved solution NMR of dinucleotide formation; type: biochemical; conditions: primase-DNA complex
[4] = biological target: T2, helix-bundle domain (HBD) of pRN1 primase; experiment: 1H-15N HSQC NMR; type: binding; conditions: HBD-DNA complex
functional pRN1 primase [5] = biological target: T1, functional pRN1 primase; experiment: […] CP-MAS solid-state NMR; 1H-15N HSQC NMR; type: biochemical; conditions: primase-DNA complex with dGTP^C; 10 mM MgCl2, pH 7.0; slow substrate
[6] = biological target: T3, catalytic domain of pRN1 primase (Saccharolobus islandicus, UniProt Q54324); experiment: 1H-15N HSQC NMR titration; type: binding; conditions: free catalytic domain, no DNA; 10 mM MgCl2, pH 7.0, 298 K; near active site (V148, S150)
T3 construct: catalytic domain, residues 40-248, expressed in E. coli BL21(DE3) Codon+, Ni2+ IMAC purified (tag not described)

functional pRN1 primase [7] = biological target: T4, functional pRN1 primase (Saccharolobus islandicus, UniProt Q54324, H145A); experiment: […] CP-MAS solid-state NMR; type: binding; conditions: catalytically inactive mutant; primase-DNA complex with ATP^N; 10 mM MgCl2, pH 7.0
T4 construct: primase part (catalytic domain plus HBD), residues 40-370, monomeric, expressed in E. coli BL21(DE3) Codon+, Ni2+ IMAC purified (tag not described)
T4 sequence (Q54324 entry or part of it H145A): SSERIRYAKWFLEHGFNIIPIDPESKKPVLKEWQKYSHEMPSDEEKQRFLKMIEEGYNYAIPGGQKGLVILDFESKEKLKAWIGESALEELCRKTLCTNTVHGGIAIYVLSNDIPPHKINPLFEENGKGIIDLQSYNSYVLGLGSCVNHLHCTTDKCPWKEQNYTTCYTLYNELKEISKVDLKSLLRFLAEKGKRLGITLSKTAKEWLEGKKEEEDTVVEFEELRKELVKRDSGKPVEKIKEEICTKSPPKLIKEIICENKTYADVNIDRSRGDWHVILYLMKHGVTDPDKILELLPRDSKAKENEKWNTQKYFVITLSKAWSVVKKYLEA

functional pRN1 primase [8] = biological target: T1, functional pRN1 primase; experiment: […] CP-MAS solid-state NMR; type: biochemical; conditions: primase-DNA complex with ATP^N; 10 mM MgCl2, pH 7.0, 281 K; bound by HBD, slow substrate
[9] = biological target: T5, pRN1 primase (functional primase) (Sulfolobus islandicus (plasmid pRN1), UniProt Q54324 40-370); experiment: NMR (1H-15N HSQC; 31P CP-MAS); ATPC + dGTPC; HBD titrations: 25 mM sodium phosphate pH 7.0, 75 mM NaCl, 10 mM MgCl2, 298 K, 0.1 mM HBD, HBD:DNA 1:1.1; solid-state NMR on sedimented complex at 278-309 K; conditions: protein: recombinant; single strand
T5 sequence: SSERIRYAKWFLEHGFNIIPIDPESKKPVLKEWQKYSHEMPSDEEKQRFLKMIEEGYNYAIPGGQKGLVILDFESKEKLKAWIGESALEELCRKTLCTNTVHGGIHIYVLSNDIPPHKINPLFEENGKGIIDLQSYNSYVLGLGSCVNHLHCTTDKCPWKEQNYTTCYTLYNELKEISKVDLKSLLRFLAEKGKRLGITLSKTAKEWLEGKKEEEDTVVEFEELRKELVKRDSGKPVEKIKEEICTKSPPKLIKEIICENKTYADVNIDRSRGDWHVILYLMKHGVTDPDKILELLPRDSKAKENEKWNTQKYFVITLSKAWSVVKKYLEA

[10] = biological target: T6, pRN1 primase helix-bundle domain (HBD) (Sulfolobus islandicus (plasmid pRN1), UniProt Q54324 256-370); experiment: NMR (1H-15N HSQC); ATP + dGTP, 10 mM Mg2+, 298 K; HBD titrations: 25 mM sodium phosphate pH 7.0, 75 mM NaCl, 10 mM MgCl2, 298 K, 0.1 mM HBD, HBD:DNA 1:1.1; solid-state NMR on sedimented complex at 278-309 K; conditions: protein: recombinant; single strand
T6 sequence: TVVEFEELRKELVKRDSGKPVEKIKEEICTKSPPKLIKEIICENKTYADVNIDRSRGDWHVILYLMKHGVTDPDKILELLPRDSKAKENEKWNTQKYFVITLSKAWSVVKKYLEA

pRN1 primase H145A = biological target: T7, pRN1 primase H145A (Sulfolobus islandicus (plasmid pRN1), UniProt Q54324 40-370, H145A); experiment: solid-state NMR (31P CP-MAS, hNH); ATPN + dGTPC, Mg2+; HBD titrations: 25 mM sodium phosphate pH 7.0, 75 mM NaCl, 10 mM MgCl2, 298 K, 0.1 mM HBD, HBD:DNA 1:1.1; solid-state NMR on sedimented complex at 278-309 K; conditions: protein: recombinant; single strand
T7 sequence: T5 sequence with H106A

## Nc1nc2c(ncn2[C@H]2C[C@H](O)[C@@H](COP(=O)(O)O[C@H]3[C@@H](O)[C@H](n4cnc5c(N)ncnc54)O[C@@H]3COP(=O)(O)OP(=O)(O)NP(=O)(O)O)O2)c(=O)[nH]1
Functional pRN1 primase [1]
  31P CP-MAS solid-state NMR; 1H-detected hNH NMR: We attribute this initial increase to dinucleotide formation and subsequent binding to pRN1 primase

## Nc1ncnc2c1ncn2[C@@H]1O[C@H](COP(=O)(O)OP(=O)(O)OP(=O)(O)O)[C@@H](O)[C@H]1O [ATP]
[2]; HBD-DNA complex, two ATP bound
  1H-15N HSQC NMR titration: The data reveal that HBD binds one ATP and one dGTP
Functional pRN1 primase [3]; co-substrate dGTP
  time-resolved solution NMR of dinucleotide formation: dinucleotide formation with the cognate NTPs was terminated within several minutes

## Nc1ncnc2c1ncn2[C@@H]1O[C@H](COP(=O)(O)OP(=O)(O)CP(=O)(O)O)[C@@H](O)[C@H]1O [ATP^C]
[4]; added together with dGTP^C
  1H-15N HSQC NMR: both ATP^C and dGTP^C were rapidly added to the HBD-DNA^CT complex
Functional pRN1 primase [5]
  31P CP-MAS solid-state NMR; 1H-15N HSQC NMR: indeed showing the bound dGTP^C and ATP^C as well as the DNA

## Nc1nc2c(ncn2[C@@H]2O[C@H](COP(=O)(O)OP(=O)(O)OP(=O)(O)O)[C@@H](O)[C@H]2O)c(=O)[nH]1 [GTP]
[2]; HBD-DNA complex with ATP
  1H-15N HSQC NMR titration: it could bind to the HBD domain in the same manner as for the dGTP substrate

## Nc1ncnc2c1ncn2[C@H]1C[C@H](O)[C@@H](COP(=O)(O)OP(=O)(O)OP(=O)(O)O)O1 [dATP]
[6]
  1H-15N HSQC NMR titration: addition of dATP to the catalytic domain resulted in visible CSPs of V148 and S150

## Nc1nc2c(ncn2[C@H]2C[C@H](O)[C@@H](COP(=O)(O)OP(=O)(O)OP(=O)(O)O)O2)c(=O)[nH]1 [dGTP]
[2]; HBD-DNA complex with ATP, displaces one ATP
  1H-15N HSQC NMR titration: titration of dGTP in a solution of HBD-DNA^CT-2ATP led to the substitution of one ATP
Functional pRN1 primase [3]; co-substrate ATP
  time-resolved solution NMR of dinucleotide formation: active primase bound to DNA^CT and the cognate NTPs (ATP and dGTP)

## Nc1nc2c(ncn2[C@H]2C[C@H](O)[C@@H](COP(=O)(O)OP(=O)(O)CP(=O)(O)O)O2)c(=O)[nH]1 [dGTP^C]
Functional pRN1 primase [7]
  31P CP-MAS solid-state NMR: wt primase and the mutant H145A bound to DNA^CT, ATP^N and dGTP^C
[4]; added together with ATP^C
  1H-15N HSQC NMR: both ATP^C and dGTP^C were rapidly added to the HBD-DNA^CT complex
Functional pRN1 primase [8]
  31P CP-MAS solid-state NMR: The isolated resonances of bound dGTP^C decrease in the solid state

## CTGTGCTCA (ssDNA) [DNACT (GTG-motif template)]
[9]
  binding result: binds
[10]
  binding result: binds
pRN1 primase H145A
  binding result: binds
